Activity calls are given as the source filed them. The rule behind the calls is not given here.
Assays:
Rattus norvegicus [1] = assay: Hypocholesterolemic activity expressed as percent change in total cholesterol in acute cholesterol fed rats (APCC) at dose 3 mg/kg; format: functional
[2] = biological target: T1, Sterol O-acyltransferase 1 (Rattus norvegicus, UniProt O70536); assay: Inhibition of Acyl-CoA: Cholesterol Acyltransferase (ACAT) in liver microsomes of cholesterol fed rats; design: species or system Microsome
T1 sequence (O70536 whole entry): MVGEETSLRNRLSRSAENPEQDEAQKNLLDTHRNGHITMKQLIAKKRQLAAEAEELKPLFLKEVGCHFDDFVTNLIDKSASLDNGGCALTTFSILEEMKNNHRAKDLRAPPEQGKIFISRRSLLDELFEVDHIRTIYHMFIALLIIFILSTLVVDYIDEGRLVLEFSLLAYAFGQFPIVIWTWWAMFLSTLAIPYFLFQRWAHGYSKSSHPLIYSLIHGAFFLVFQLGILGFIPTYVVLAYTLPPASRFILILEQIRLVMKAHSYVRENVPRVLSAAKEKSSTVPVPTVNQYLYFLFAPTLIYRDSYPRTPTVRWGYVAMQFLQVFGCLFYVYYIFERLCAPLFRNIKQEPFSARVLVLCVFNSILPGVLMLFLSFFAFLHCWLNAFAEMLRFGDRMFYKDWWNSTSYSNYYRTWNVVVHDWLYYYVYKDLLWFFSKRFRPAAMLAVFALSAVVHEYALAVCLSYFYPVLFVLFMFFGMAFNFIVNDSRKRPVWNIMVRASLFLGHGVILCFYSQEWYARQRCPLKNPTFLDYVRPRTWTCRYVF

Rattus norvegicus [3] = assay: Hypocholesterolemic activity expressed as percent change in total cholesterol in chronic cholesterol fed rats (CPCC) at dose 3 mg/kg; format: functional
Rattus norvegicus [4] = assay: Hypocholesterolemic activity expressed as percent change in total cholesterol in acute cholesterol fed rats (APCC) at dose 30 mg/kg; format: functional
Rattus norvegicus [5] = assay: Hypocholesterolemic activity expressed as percent change in total cholesterol in chronic cholesterol fed rats (CPCC) at dose 30 mg/kg; format: functional
Rattus norvegicus [6] = assay: Hypocholesterolemic activity expressed as percent change in total cholesterol in acute cholesterol fed rats (APCC) at dose 30 mg/kg; NC means no change; format: functional, organism-based; design: dose 30 mg/kg
[7] = biological target: T1, Sterol O-acyltransferase 1; assay: (§1) Compound at 5 uM concentration was tested in vitro for inhibition of Acyl-CoA: Cholesterol Acyltransferase (ACAT) in liver microsomes of cholesterol fed rats; design: species or system Microsome
O-acyltransferase [8] = biological target: T2, O-acyltransferase (Oryctolagus cuniculus, UniProt G1SFD9); assay: Inhibition of Acyl-CoA: Cholesterol Acyltransferase (ACAT) in intestinal microsomes of cholesterol fed rabbits; design: species or system Intestine
[9] = biological target: T3, Acyl-CoA:cholesterol acyltransferase (Oryctolagus cuniculus) (UniProt Q95214); assay: (§2) Compound at 5 uM concentration was tested in vitro for inhibition of Acyl-CoA: Cholesterol Acyltransferase (ACAT) in intestinal microsomes of cholesterol fed rabbits; details: Intestine
T3 sequence (whole entry): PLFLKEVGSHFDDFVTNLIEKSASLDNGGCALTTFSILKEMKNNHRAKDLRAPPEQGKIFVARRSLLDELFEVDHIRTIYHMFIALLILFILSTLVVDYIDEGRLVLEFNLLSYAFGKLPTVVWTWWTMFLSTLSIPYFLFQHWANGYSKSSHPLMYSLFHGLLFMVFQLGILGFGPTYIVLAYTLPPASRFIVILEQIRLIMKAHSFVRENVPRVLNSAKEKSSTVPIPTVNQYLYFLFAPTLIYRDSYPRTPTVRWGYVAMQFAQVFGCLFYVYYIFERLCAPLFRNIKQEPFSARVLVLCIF

[10] = biological target: T4, Sterol O-acyltransferase 1 (Rattus norvegicus) (UniProt O70536); assay: as §1; details: Microsome
T4 sequence (whole entry): T1 sequence (O70536 whole entry)

[11] = biological target: T4, Sterol O-acyltransferase 1 (Rattus norvegicus); assay: Compound at 10 uM concentration was tested in vitro for inhibition of Acyl-CoA: Cholesterol Acyltransferase (ACAT) in liver microsomes of cholesterol fed rats; details: Microsome
O-acyltransferase [12] = biological target: T2, O-acyltransferase; assay: as §2; design: species or system Intestine
Rattus norvegicus [13] = assay: Hypocholesterolemic activity expressed as percent change in total cholesterol in chronic cholesterol fed rats (CPCC) at dose 3 mg/kg; NC means no change; format: functional, organism-based; design: dose 3 mg/kg

T2 sequence (G1SFD9 1-524): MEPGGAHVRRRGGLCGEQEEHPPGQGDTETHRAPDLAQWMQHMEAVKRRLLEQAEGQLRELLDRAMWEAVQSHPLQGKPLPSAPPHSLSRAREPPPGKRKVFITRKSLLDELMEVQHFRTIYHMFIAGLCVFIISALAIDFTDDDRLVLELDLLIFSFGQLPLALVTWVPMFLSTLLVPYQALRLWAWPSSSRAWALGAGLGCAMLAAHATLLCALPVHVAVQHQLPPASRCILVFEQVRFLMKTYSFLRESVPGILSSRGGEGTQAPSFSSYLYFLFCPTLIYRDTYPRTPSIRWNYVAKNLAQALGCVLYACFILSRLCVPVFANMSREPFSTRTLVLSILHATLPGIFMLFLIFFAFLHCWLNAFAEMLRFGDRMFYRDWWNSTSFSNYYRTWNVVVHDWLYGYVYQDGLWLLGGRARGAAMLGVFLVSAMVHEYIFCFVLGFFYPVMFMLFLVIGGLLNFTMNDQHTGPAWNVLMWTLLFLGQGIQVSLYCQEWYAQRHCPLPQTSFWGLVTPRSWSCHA

| IC50 [2] [nM] | IC50 (O-acyltransferase [8]) [nM] | SMILES | Change (Rattus norvegicus [1]) [%] | Change (Rattus norvegicus [3]) [%] | Change (Rattus norvegicus [4]) [%] | Change (Rattus norvegicus [5]) [%] | other results |
| --- | --- | --- | --- | --- | --- | --- | --- |
| 940 |  | CCCCCCCCCCCCCCS(=O)(=O)NC(=O)Nc1c(C(C)C)cccc1C(C)C | -60 | -46 | -56 | -58 |  |
| 2000 | 1200 | CCCCCCCCCCCCCS(=O)(=O)NC(=O)Nc1c(C(C)C)cccc1C(C)C | -42 |  | -62 | -69 |  |
| 9200 |  | CCCCCCCCC(c1ccccc1)S(=O)(=O)NC(=O)Nc1c(C(C)C)cccc1C(C)C (stereo not given) | -62 | -48 | -75 | -74 | IC50 (O-acyltransferase [12]): 1100 nM |
| 1270 | 1350 | CCCCCCCCCCCCCCCCS(=O)(=O)NC(=O)Nc1c(C(C)C)cccc1C(C)C | -58 |  | -64 | -10 |  |
| 3300 | 2330 | CCCCCCCCCCCCS(=O)(=O)NC(=O)Nc1c(C(C)C)cccc1C(C)C | -59 | -35 | -63 | -53 |  |
| 13600 | 11100 | CCCCCCCCCCS(=O)(=O)NC(=O)Nc1c(C(C)C)cccc1C(C)C | -40 |  | -52 | -47 |  |
| 830 |  | CCCCCCCCCCCCCC(C)S(=O)(=O)NC(=O)Nc1c(C(C)C)cccc1C(C)C (stereo not given) | -61 | -26 | -76 | -61 |  |
| 1300 |  | CCCCCCCCC(C)S(=O)(=O)NC(=O)Nc1c(C(C)C)cccc1C(C)C (stereo not given) | -32 | -46 | -69 | -58 |  |
| 22600 |  | CCCCCCCCS(=O)(=O)NC(=O)Nc1c(C(C)C)cccc1C(C)C | -31 |  | -74 | -59 | inhibition [9]: 24% |

More lines, now with the values behind:

| SMILES | IC50 [2] [nM] | IC50 (O-acyltransferase [8]) [nM] | Change (Rattus norvegicus [1]) [%] | Change (Rattus norvegicus [3]) [%] | Change (Rattus norvegicus [4]) [%] | Change (Rattus norvegicus [5]) [%] | other results |
| --- | --- | --- | --- | --- | --- | --- | --- |
| CCCCCCCCCCCCCCS(=O)(=O)N(Cc1ccccc1)C(=O)Nc1c(C(C)C)cccc1C(C)C |  | 520 |  |  |  |  | Change (Rattus norvegicus [6]): inactive; IC50 [7]: 38000 nM |
| CCCCCCCCCCCCCCS(=O)(=O)N(C)C(=O)Nc1c(C(C)C)cccc1C(C)C | 8830 |  | -20 |  | -48 |  | inhibition [9]: 34% |
| CCCCCCCCCCCCCCS(=O)(=O)NC(=O)Nc1c(OC)cc(OC)cc1OC |  |  | -31 |  | -47 |  | inhibition [10]: 40% |
| CCCCCCCCCCCCCCS(=O)(=O)NC(=O)Nc1ccc(F)cc1F |  |  | -14 |  |  |  | inhibition [9]: 49%; inhibition [11]: 0% |
| CCCCCCCCCCCCCC(C)(C)S(=O)(=O)NC(=O)Nc1c(OC)cc(OC)cc1OC | 8100 |  | -18 | -13 | -76 |  |  |
| CCCCCCCCCCCCCC(c1ccccc1)S(=O)(=O)NC(=O)Nc1c(C(C)C)cccc1C(C)C (stereo not given) | 2300 |  | -69 |  | -72 | -62 | Change (Rattus norvegicus [13]): inactive |
| CCCCCCCCCCCCS(=O)(=O)N(C)C(=O)Nc1c(C(C)C)cccc1C(C)C | 675 | 86 | -18 |  | -49 |  |  |
| CCCCCCCCCCCCCC(C)(C)S(=O)(=O)NC(=O)Nc1c(C(C)C)cccc1C(C)C | 682 |  | -55 | -26 | -52 | -59 |  |
| CC(C)c1cccc(C(C)C)c1OC(=O)[N-]S(=O)(=O)Oc1c(C(C)C)cccc1C(C)C.[Na+] |  |  | -59 | -64 | -74 | -64 |  |
| CCCCCCCCCCCCCCCCC(C)S(=O)(=O)NC(=O)Nc1c(OC)cc(OC)cc1OC (stereo not given) | 85 |  | -12 |  | -53 | -18 |  |
| CCCCCCCCCCCCCCCCC(C)S(=O)(=O)NC(=O)Nc1c(C(C)C)cccc1C(C)C (stereo not given) | 1390 |  | -58 |  | -76 | -36 |  |
